According to patent US8106015B2, “Method for enhancing immune response with peptide” (Juridical Foundation The Chemo-Sero-Therapeutic Research …, priority 2007, dated 2012):
“And” between values parts separate entries of the source, which are not always exact repeats. Identical values can stand only once.

How the values were obtained:
Format in all cases: in vivo, C57BL/6 mice
[1] = tested on: anti-Aβ IgG antibody; assay: Example 6: anti-Aβ IgG antibody titer, Aβ peptide sequences with insertion of cysteine; details: Day 7 from the final 4th immunization; for Antibody titer, Mean: group mean of 4 mice; for Antibody titer: individual animals (No. 1-4), 100 μg/mouse, 2-week intervals, no adjuvant
[2] = tested on: anti-Aβ IgG antibody; assay: Example 3: anti-Aβ IgG antibody titer, Aβ peptides with addition of cysteine of 26-40 amino acids in length; details: Day 7 from final 3rd immunization; for Antibody titer, Mean: group mean of 4 mice; for Antibody titer: individual animals (No. 1-4), 100 μg/mouse, 3 times at 2-week intervals, no adjuvant
[3] = tested on: anti-Aβ IgG antibody; assay: Example 2: anti-Aβ IgG antibody titer, Aβ peptide with cysteine vs carrier-linked Aβ peptide with/without adjuvant; details: Day 7 from final 3rd immunization
[4] = tested on: anti-Aβ IgG antibody; assay: Example 7: anti-Aβ IgG antibody titer, Aβ peptide with cysteine plus exogenous amino acid sequence; details: Day 7 from the final 4th immunization; for Antibody titer, Mean: group mean of 4 mice; for Antibody titer: individual animals (No. 1-4), 100 μg/mouse, 2-week intervals, no adjuvant
[5] = tested on: anti-Aβ IgG antibody; assay: Example 10: anti-Aβ IgG antibody titer, Aβ peptide with/without cysteine, with and without adjuvant; details: Day 7 from final 3rd immunization
[6] = tested on: anti-Aβ IgG antibody; assay: Example 1: anti-Aβ IgG antibody titer in murine serum after immunization with Aβ peptides with and without addition of cysteine
[7] = tested on: anti-Aβ IgG antibody; assay: Example 4: anti-Aβ IgG antibody titer, Aβ peptides with 0, 1 or 2 molecules of cysteine added
[8] = tested on: anti-Aβ IgG antibody; assay: Example 5: anti-Aβ IgG antibody titer, cysteine at the C-terminal, the N-terminal and both terminals; details: Day 7 from the final 4th immunization; for Antibody titer, Mean: group mean of 4 mice; for Antibody titer: individual animals (No. 1-4), 100 μg/mouse, 2-week intervals, no adjuvant
[9] = group mean of 4 mice, serum, 100 μg/mouse intradermally or subcutaneously, 2-week intervals, no adjuvant

Sequence: DAEFRHDSGYEVHHQKLVFFAEDVGSNKCGAIIG [33AA28Cys, Aβ peptide with insertion of cysteine between the 28th and 29th amino acid residues]
- Antibody inducing ability [1]: antibody inducing ability was found
- Antibody titer, Mean [1]: 4105.0 ng/mL
- Antibody titer [1]: 245 ng/mL and 1932 ng/mL and 29 ng/mL and 14214 ng/mL

Sequence: DAEFRHDSGYEVHHQKLVFFAEDVGSNC [27AACys, 27-amino acid Aβ peptide with addition of cysteine at the C-terminal]
- Antibody titer, Mean [2]: 19.0 ng/mL
- Antibody titer [2]: 15 ng/mL and 19 ng/mL (2×) and 24 ng/mL

Sequence: DAEFRHDSGYEVHHQKLVFFAEDVGSC [26AACys, 26-amino acid Aβ peptide with addition of cysteine at the C-terminal]
- Antibody titer, Mean [2]: 24.5 ng/mL
- Antibody titer [2]: 39 ng/mL and 19 ng/mL (2×) and 21 ng/mL

Sequence: DAEFRHDCSGYEVHHQKLVFFAEDVGSNK [28AA7Cys, 28-amino acid Aβ peptide with insertion of cysteine after residue 7]
- Antibody titer, Mean [1]: 23.0 ng/mL
- Antibody titer [1]: 21 ng/mL and 24 ng/mL and 17 ng/mL and 30 ng/mL

Sequence: DAEFRHDSGYEVHHQKLVCFFAEDVGSNK [28AA18Cys, 28-amino acid Aβ peptide with insertion of cysteine between 18th-19th amino acid residues]
- Antibody inducing ability [1]: antibody inducing ability was found
- Antibody inducing ability as compared to the group administered with 28AACys [1]: higher antibody inducing ability
- Antibody titer, Mean [1]: 611899.2 ng/mL
- Antibody titer [1]: 2163676 ng/mL and 92083 ng/mL and 54037 ng/mL and 137801 ng/mL

Sequence: DAEFRHDSGYEVHHQKLVFFAEDVGSNKC [28AACys, 28-amino acid Aβ peptide with addition of cysteine]
- Antibody inducing ability [1]: antibody inducing ability was found
- Antibody titer, Mean [1]: 18946.0 ng/mL
- Antibody titer [1]: 20883 ng/mL and 10503 ng/mL and 38907 ng/mL and 5491 ng/mL
- Antibody titer, Mean ([3]; group mean of 5 mice): 4237.48 ng/mL
- Antibody titer ([3]; individual animals (No. 1-5), primary 100 μg, 2nd and 3rd 50 μg per animal, 2-week intervals): 1714.4 ng/mL and 5949.1 ng/mL and 10122.3 ng/mL and 716.6 ng/mL and 2685.0 ng/mL
- Antibody inducing ability [4]: antibody inducing ability was found
- Antibody titer, Mean [4]: 5070.2 ng/mL
- Antibody titer [4]: 211 ng/mL and 365 ng/mL and 19578 ng/mL and 127 ng/mL
- Antibody titer, Mean ([5]; group mean of 4 mice): 19243.7 ng/mL
- Antibody titer ([5]; individual animals (No. 1-4), 100 μg Aβ peptide per animal, 3 times at 2-week intervals): 8847 ng/mL and 9458 ng/mL and 10446 ng/mL and 48224 ng/mL
- Increase in the antibody titer with addition of cysteine ([6]; compared to the same Aβ peptide fragment without addition of cysteine): about 39 fold
- Antibody titer, Day 7 from 2nd administration, Mean [6, 9]: 157767.25 ng/mL
- Antibody titer, Day 7 from 3rd administration, Mean [6, 9]: 26043.00 ng/mL
- Antibody titer, Day 7 from 2nd administration ([6]; individual animals (No. 1-4), serum, 100 μg/mouse intradermally or subcutaneously, 2-week intervals, no adjuvant): 74096.0 ng/mL and 30542.0 ng/mL and 389239.0 ng/mL and 137192.0 ng/mL
- Antibody titer, Day 7 from 3rd administration ([6]; individual animals (No. 1-4), serum, 100 μg/mouse intradermally or subcutaneously, 3 times at 2-week intervals, no adjuvant): 20265.0 ng/mL and 2337.0 ng/mL and 69198.0 ng/mL and 12372.0 ng/mL
- Antibody inducing ability ([7]; 1 vs 2 molecules of cysteine at the C-terminal): almost the same antibody inducing ability
- Antibody titer, Mean ([7]; group mean of 4 mice, Day 7 from the final 4th immunization): 5070.2 ng/mL
- Antibody titer ([7]; individual animals (No. 1-4), Day 7 from the final 4th immunization, 100 μg/mouse, 2-week intervals, no adjuvant): 211 ng/mL and 365 ng/mL and 19578 ng/mL and 127 ng/mL
- Antibody titer, Mean [8]: 155867.0 ng/mL
- Antibody titer [8]: 290461 ng/mL and 94 ng/mL and 139927 ng/mL and 192986 ng/mL
- Antibody inducing ability against Aβ [2]: higher antibody titer
- Antibody titer, Mean [2]: 51916.1 ng/mL
- Antibody titer [2]: 3120 ng/mL and 2191 ng/mL and 115618 ng/mL and 86736 ng/mL

Sequence: DAEFRHDSGYCEVHHQKLVFFAEDVGSNK [28AA10Cys, 28-amino acid Aβ peptide with insertion of cysteine after residue 10]
- Antibody titer, Mean [1]: 17.7 ng/mL
- Antibody titer [1]: 26 ng/mL and 19 ng/mL and 18 ng/mL and 8 ng/mL

Sequence: DAEFRHDSGYEVHHQKLVFFAEDVGSNKCTTD [28AACysTTD, Peptide with addition of cysteine at the C-terminal plus an exogenous peptide]
- Antibody inducing ability [4]: antibody inducing ability was found
- Antibody titer, Mean [4]: 28279.3 ng/mL
- Antibody titer [4]: 46 ng/mL and 106899 ng/mL and 4316 ng/mL and 1855 ng/mL

Sequence: DAEFRHDSGYEVHHQKLVFFAEDVGSNKCGAIIGLM [35AA28Cys, Aβ peptide with insertion of cysteine between the 28th and 29th amino acid residues]
- Antibody inducing ability [1]: antibody inducing ability was found
- Antibody titer, Mean [1]: 6897.5 ng/mL
- Antibody titer [1]: 1753 ng/mL and 17265 ng/mL and 2103 ng/mL and 6469 ng/mL

Sequence: DAEFRHDSGYEVHHQKLVFFAEDVGCSNK [28AA25Cys, Aβ peptide with insertion of cysteine between the 25th and 26th amino acid residues]
- Antibody inducing ability [1]: antibody inducing ability was found
- Antibody titer, Mean [1]: 6860.8 ng/mL
- Antibody titer [1]: 14972 ng/mL and 4721 ng/mL and 4483 ng/mL and 3267 ng/mL

Sequence: DAEFRHDSGYEVHHQKLVFFAEDVGSNKCEIFEFTTD [Peptide with addition of cysteine at the C-terminal plus an exogenous peptide]
- Antibody inducing ability [4]: antibody inducing ability was found
- Antibody titer, Mean [4]: 21099.2 ng/mL
- Antibody titer [4]: 8196 ng/mL and 28782 ng/mL and 2162 ng/mL and 45257 ng/mL

Sequence: CDAEFRHDSGYEVHHQKLVFFAEDVGSNKC [Cys28AACys, Peptide with addition of each 1 molecule of cysteine at the C-terminal and the N-terminal]
- Antibody titer, Mean [8]: 13051.6 ng/mL
- Antibody titer [8]: 772 ng/mL and 49849 ng/mL and 1537 ng/mL and 48 ng/mL

Sequence: CDAEFRHDSGYEVHHQKLVFFAEDVGSNK [Cys28AA, Peptide with addition of 1 molecule of cysteine at the N-terminal]
- Antibody titer, Mean [8]: 5891.8 ng/mL
- Antibody titer ([8]; listed as Cys2BAA): 7708 ng/mL and 423 ng/mL and 15328 ng/mL and 108 ng/mL
